Among the data in ChEMBL document CHEMBL1155089, “Discovery of an Aurora kinase inhibitor through site-specific dynamic combinatorial chemistry” (Bioorg Med Chem Lett, 2008) are IC50 values, retold here.

The structures appear in SMILES notation. A value given as a limit tells only on which side of the number the result lay.

For the assay, the target named is T1, Aurora kinase A (Homo sapiens, UniProt O14965).
T1 sequence (O14965 whole entry): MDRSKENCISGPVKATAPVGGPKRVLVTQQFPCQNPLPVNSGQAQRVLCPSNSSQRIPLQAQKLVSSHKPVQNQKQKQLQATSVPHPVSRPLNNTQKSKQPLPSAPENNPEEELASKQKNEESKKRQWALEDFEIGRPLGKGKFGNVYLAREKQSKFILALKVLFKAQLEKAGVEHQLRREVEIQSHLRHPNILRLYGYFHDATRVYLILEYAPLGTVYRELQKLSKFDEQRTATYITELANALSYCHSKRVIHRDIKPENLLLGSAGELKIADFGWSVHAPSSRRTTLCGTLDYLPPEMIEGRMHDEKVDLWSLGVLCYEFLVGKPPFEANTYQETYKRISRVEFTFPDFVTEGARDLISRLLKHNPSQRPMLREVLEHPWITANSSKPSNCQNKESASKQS
As to the kind of experiment: Inhibition of Aurora kinase A.
A word on the IC50: it is the concentration at which inhibition is half-maximal. On to `CCCCCCNc1ncnc2nc[nH]c12`, for which the IC50 was over 100 µM.

With `CCCCNC(=O)c1cccc(NC(=O)CCCCCCNc2cc(N)ncn2)c1`, the IC50 amounted to 17 µM.

`CCCCNC(=O)c1cccc(NC(=O)CCCCCNc2ncnc3nc[nH]c23)c1` registered an IC50 of 2.9 µM.
